Reference: US20090069441A1, “Motuporamine Mimic Agents” (priority 2006, published 2009)
Like-named read-outs stand apart in the source and are kept apart here.

How the values were obtained:
L1210 cells [1] = conditions: 48 h incubation; data originally reported in Ref; cited from earlier work
CHO cells = conditions: data originally reported in Ref, cited from earlier work; for IC50: 48 h incubation
[2] = target: polyamine transporter (PAT); conditions: data originally reported in Ref; read-out: L1210 Ki value; cited from earlier work
CHO-MG cells = conditions: 48 h incubation; data originally reported in Ref; cited from earlier work
[3] = system: Drosophila imaginal leg discs; experiment: Imaginal disc eversion assay; format: cell-based, Drosophila melanogaster; conditions: Drosophila melanogaster, 15 hr incubation in Robb's medium
Method: DihydroMotuporamine C, 4a, was used to develop an imaginal disc assay in Drosophila flies. The imaginal leg discs were collected by microscopic dissection from maggots. […] Inhibition was measured as failure of the disc to fully develop into a fly leg after 15 hr of incubation in Robb's growth medium. This presumably occurs by overactivation of Rho, an important signaling pathway in development. Hyper-stimulation of this pathway is sufficient to block development of the fly leg.
Fly Stocks: 20 female and 5 male wild type Oregon variant of Drosophila melanogaster interbred in blue food medium for 24 hours then flies are removed. Third instar wall-crawling larvae collected then dissected on the sixth day. Flies kept in 25° C. incubation chamber.
Blue Food Preparation: Standard corn meal medium heated then mixed completely with aqueous 1% Bromophenol Blue. The food medium is cooled for one day or more before use.
Dissection Medium: Ringer's Buffer with 10 uL 0.1% BSA. Ringer's Medium consists of 130 mM NaCl, 5 mM KCl, 1.5 mM CaCl2-2H2O, Stored at room temperature (23° C.), BSA added before dissection.
Cultivation Medium: Minimal Robb's Medium with 10 uL 0.1% BSA. Minimal Robb's Medium consists of 40 mM KCl, 0.4 mM KH2PO4, 40 mM NaCl, 0.4 mM NaH2PO4.7H2O, 1.2 mM MgSO4.7H2O, 1.2 mM MgCl2-6H2O, 1 mM CaCl2-2H2O, 10 mM Glucose, 0.2 mM L-asparagine, 4.0 mM L-glutamine, 0.16 mM Glycine, 0.64 mM L-leucine, 0.32 mM L-proline, 0.16 mM R-Serine, 0.64 mM L-valine. Stored at −25° C. One day before dissection, aliquot defrosted in 4° C. Add BSA then warmed to room temperature (23° C.) before dissection.
0.1% BSA: 0.1 g BSA fraction V (Sigma#A-9647) in 10 mL distilled H2O, Stored at 4° C.
Developmental Hormone: 1 mg 20-hydroxyecdysone (Sigma #H-5142) in 1 mL 100% Ethanol. Stored at −25° C. Before use, stock is diluted 10× (1 mL added to 9 mL of 100% Ethanol). 10 μL of diluted 20-hydroxyecdysone is added to culture.
Dissection Procedures: Third instar larvae are removed from cultivation bottle with a wetted brush and washed in dH2O to remove food medium clinging to larvae. The cleaned larvae are dissected in Ringer's Medium using forceps. The imaginal discs are washed in fresh Ringer's Medium, and then cultivated with 1 mL of Robb's Medium in 12-well culture plate. Each culture well should have 30˜40 imaginal discs.
Culturing Procedures: In a larger container, place the 12-well culture plate on a moist towel, then seal the large container. Cultivate at 25° C. for 15 hours. Evaluation: Three categories will be used to grade the eversion of each imaginal disc. Full Eversion—the leg is fully extended from the disc. Partial Eversion—the leg is protruding from the epithelial. No Eversion—no sign of any protrusion.

L1210 cells [4] = experiment: Cytotoxicity (cell growth, MTT) in L1210 cells; format: cell-based, mouse; conditions: Mus musculus; L1210 experiments, no added SPD; read-out: L1210 IC50
Description: In terms of Table 1, L1210 cells are mouse leukemia cells and are the gold standard in terms of evaluating polyamine cytotoxicity data due to a plethora of prior data in this cell line for other polyamine structures. Clearly 7a was similar in all respects to 4a (Table 1). […] The lower the Ki value, the higher the affinity of the drug for the polyamine transporter (PAT) on the cell surface. Chinese hamster ovary (CHO) cells and a mutant line without an active PAT (CHO-MG) also evaluated the PAT selectivity of these drugs.
Biological Evaluation. Once synthesized, the conjugates were screened for cytotoxicity in L1210, CHO and CHO-MG cells. L1210 (mouse leukemia) cells were selected to enable comparisons with the published IC50 and Ki values for a variety of polyamine substrates. Chinese Hamster Ovary (CHO) cells were chosen along with a mutant PAT deficient cell line (CHO-MG) in order to comment on selective transport via the PAT (Wang et al, J. Med. Chem. 2003, 46, 2663-2671; Wang et al, J. Med. Chem. 2003, 46, 2672-2682; Wang et al., J. Med. Chem. 2003, 46, 5129-5138; Delcros et al., J. Med. Chem., 2002, 45, 5098-5111).
L1210 IC50 and Ki studies. […] The Ki values in Table 3 were determined for [^14C]spermidine uptake and reflect the affinity of the polyamine derivative for the polyamine transporter on the cell surface. With both parameters, one can determine whether high affinity for the transporter (e.g., low Ki value) translated into high cytotoxicity (e.g., low IC50 value), etc.
Biological studies. Murine leukemia cells (L1210), CHO and CHO-MG cells were grown in RPMI medium supplemented with 10% fetal calf serum, glutamine (2 mM), penicillin (100 U/mL), streptomycin (50 μg/mL). L-Proline (2 μg/mL) was added to the culture medium for CHO-MG cells. Cells were grown at 37° C. under a humidified 5% CO2 atmosphere. Aminoguanidine (AG, 2 mM) was added to the culture medium to prevent oxidation of the drugs by the enzyme (bovine serum amine oxidase) present in calf serum. Trypan blue staining was used to determine cell viability before the initiation of a cytotoxicity experiment. Cells in early to mid log-phase were used. IC50 determinations. Cell growth was assayed in sterile 96-well microtiter plates (Becton-Dickinson, Oxnard, Calif., USA). L1210 cells were seeded at 5e^4 cells/mL of medium (100 μL/well). CHO and CHO-MG cells were plated at 2e^3 cells/mL. Drug solutions (10 μL per well) of appropriate concentration were added at the time of seeding for L1210 cells and after an overnight incubation for the CHO cell lines. After exposure to the drug for 48 hr, cell growth was determined by measuring formazan formation from 3-(4,5-dimethylthiazol-2-yl)2,5-diphenyltetrazolium using a Titertek Multiskan MCC/340 microplate reader for absorbance (540 nm) measurements (Mosmann, T., J. Immunol. Methods 1983, 65, 55-63).

Row | SMILES | IC50 (L1210 cells [1]) [µM] | IC50 (CHO cells) [µM] | IC50 Ratio (CHO-MG/CHO), a measure of PAT selectivity (CHO cells) | Ki [2] [µM] | IC50 (CHO-MG cells) [µM] | inhibition at 18 µM [3] [%] | IC50 (L1210 cells [4]) [µM]
1 | NCCCNCCCN1CCCCCCCCCCCCCC1 [Compound 4a, Dihydromotuporamine C, reference compound] | 3 | 10.5 | 1 | 9.9 | 10 | – | –
2 | CCN(CCCCNCCCCN)Cc1c2ccccc2cc2ccccc12 [Compound 7b, N-(4-Amino-butyl)-N′-anthracen-9-ylmethyl-N′-ethyl-butane-1,4-diamine] | – | 22.2 | 1 | 24.4 | 21.9 | 8 | 22.2
3 | NCCCNCCCNCc1c2ccccc2cc2ccccc12 [Compound 6a] | 1.8 | 1.9 | 1.8 | 33.4 | 3.4 | 60 | –
